Measured values reported in PMC10854695, “Using Flavonoid Substitution Status to Predict Anticancer Effects in Human Melanoma Cancers: An In Vitro Study” (Cancers, 2024).

Columns and labels:
C32 melanoma cells [1] = experiment: Neutral red uptake (NRU) assay, C32; conditions: Homo sapiens
Experimental: The NRU (neutral red uptake) was conducted as previously described by Szoka and co-workers, with some modifications [22]. Briefly, melanoma cells and fibroblasts were seeded in microplates at the density of 1 × 10^4 cells per well and allowed to adhere for 24 h. […] After treatment, the culture medium was replaced with a neutral red solution (40 µg/mL). An additional 2 h of incubation was performed. The neutral red solution was then removed and the neutral red accumulated in the cells was dissolved in 50% EtOH with 1% of the glacial acetic acid. The absorbance was estimated at 540 nm and IC50 values were calculated using GraphPad Prism software (GraphPad Software, San Diego, CA, USA).

A375 melanoma cells [2] = experiment: MTT cell viability assay, A375; conditions: Homo sapiens;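 note: Read-out is formazan absorbance at 570 nm after 2 h with MTT, with compounds in at most 0.1% v/v DMSO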
A375 melanoma cells [3] = experiment: Neutral red uptake (NRU) assay, A375; conditions: Homo sapiens, read-out: IC50, cytotoxic activity, NRU assay
C32 melanoma cells [4] = experiment: MTT cell viability assay, C32; conditions: Homo sapiens, read-out: IC50, cytotoxic activity, MTT test;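 note: MTT added for 2 h, cells lysed in DMSO, absorbance read at 570 nm, compound vehicle kept at or below 0.1% DMSO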
Experimental: The MTT colorimetric assay was performed as a preliminary evaluation of the cytotoxicity of the selected flavonoids according to the method described and validated by Strawa et al. [21]. Briefly, melanoma cells and fibroblasts were seeded in 96-well microplates at a density of 1 × 10^4 cells per well. Fibroblasts were used as a control cell line in order to assess the selectivity of the compounds. […] Subsequently, the cells were washed with PBS, incubated with MTT solution for 2 h, and lysed with dimethyl sulfoxide (DMSO) supplemented with 1% (v/v) Sorensen’s glycine buffer. The absorbance was measured using a microplate reader (EPOCH 2, BioTek, Winooski, VT, USA) at a wavelength of 570 nm. The compounds were used at a final DMSO concentration of no more than 0.1% (v/v) in each well. The results were generated from at least three independent experiments. […] The IC50 values were calculated with GraphPad Prism 9 software (GraphPad Software, San Diego, CA, USA).

[5] = Neutral red uptake (NRU) assay, normal cells; conditions: human
in vitro = conditions: human
[6] = MTT cell viability assay, normal cells; conditions: human;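 note: fibroblasts served as non-cancer comparison line for selectivity versus melanoma cells, MTT reduction read as absorbance at 570 nm after 2 h dye exposure, compounds in ≤0.1% DMSO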
[7] = C32, 24 h, read-out: IC50, cytotoxic activity, NRU assay, C32, 24 h
[8] = C32, 48 h, read-out: IC50, cytotoxic activity, NRU assay, C32, 48 h
[9] = C32, 72 h, read-out: IC50, cytotoxic activity, NRU assay, C32, 72 h
[10] = A-375, 24 h, read-out: IC50, cytotoxic activity, MTT test, A375, 24 h
[11] = A-375, 48 h, read-out: IC50, cytotoxic activity, MTT test, A375, 48 h
[12] = A-375, 72 h, read-out: IC50, cytotoxic activity, MTT test, A375, 72 h
[13] = human skin fibroblasts (CCD25Sk)

SMILES	IC50 at 24 h [5, 13] [µM]	IC50 at 48 h [5, 13] [µM]	IC50 at 72 h [5, 13] [µM]	IC50 at 24 h (in vitro) [µM]	IC50 at 48 h (in vitro) [µM]	IC50 (C32 melanoma cells [1]; [7]) [µM]	IC50 (C32 melanoma cells [1]; [8]) [µM]	IC50 (C32 melanoma cells [1]; [9]) [µM]	IC50 (A375 melanoma cells [2]; [10]) [µM]	IC50 (A375 melanoma cells [2]; [11]) [µM]	IC50 (A375 melanoma cells [2]; [12]) [µM]	IC50 (A375 melanoma cells [3]; A-375, 24 h) [µM]	IC50 (A375 melanoma cells [3]; A-375, 48 h) [µM]	IC50 (A375 melanoma cells [3]; A-375, 72 h) [µM]	IC50 (C32 melanoma cells [4]; C32, 24 h) [µM]	IC50 (C32 melanoma cells [4]; C32, 48 h) [µM]	IC50 (C32 melanoma cells [4]; C32, 72 h) [µM]	IC50 at 24 h [6, 13] [µM]	IC50 at 48 h [6, 13] [µM]	IC50 at 72 h [6, 13] [µM]	also measured
COc1ccc(-c2oc3c(CC=C(C)C)c(O[C@@H]4O[C@H](CO)[C@@H](O)[C@H](O)[C@H]4O)cc(O)c3c(=O)c2O[C@@H]2O[C@@H](C)[C@H](O)[C@@H](O)[C@H]2O)cc1 [Compound 23, icariin]	> 200	> 200	> 200	> 200	> 200	> 200	> 200	> 200	> 200	> 200	> 200	> 200	> 200	> 200	> 200	> 200	> 200				IC50 at 72 h (in vitro): > 200 µM
O=C(O)C1OC(Oc2c(-c3ccc(O)c(O)c3)oc3cc(O)cc(O)c3c2=O)C(O)C(O)C1O (stereo not drawn) [Compound 27, quercetin 3-O-glucuronide]	> 200	> 200	> 200			> 200	> 200	100 to 200	> 200	> 200	> 200	> 200	> 200	> 200	> 200	> 200	> 200	> 200	> 200	> 200	
O=c1c(O)c(-c2cc(O)c(O)c(O)c2)oc2cc(O)ccc12 [Compound 32, robinetin]	> 200	> 200	> 200			> 200	> 200	> 200	> 200	> 200	100 to 200	> 200	> 200	> 200	> 200	> 200	> 200	> 200	> 200	> 200	
COc1cc(-c2cc(=O)c3c(O)cc(O)cc3o2)cc(OC)c1O [Compound 31, tricin]												> 200	> 200	> 200	> 200	100 to 200	100 to 200				IC50 (C32 melanoma cells [1]; C32, 24 h, read-out: IC50, cytotoxic activity, NRU assay): > 200 µM; IC50 (C32 melanoma cells [1]; C32, 48 h, read-out: IC50, cytotoxic activity, NRU assay): > 200 µM; IC50 (C32 melanoma cells [1]; C32, 72 h, read-out: IC50, cytotoxic activity, NRU assay): > 200 µM; IC50 (A375 melanoma cells [2]; A-375, 24 h, read-out: IC50, cytotoxic activity, MTT test): > 200 µM; IC50 (A375 melanoma cells [2]; A-375, 48 h, read-out: IC50, cytotoxic activity, MTT test): 100 to 200 µM; IC50 (A375 melanoma cells [2]; A-375, 72 h, read-out: IC50, cytotoxic activity, MTT test): 100 to 200 µM; IC50 at 24 h [6]: 100 to 200 µM; IC50 at 48 h [6]: 80.3 ± 6.6 µM; IC50 at 72 h [6]: 56.4 ± 4.7 µM; IC50 at 24 h [5]: > 200 µM; IC50 at 48 h [5]: > 200 µM; IC50 at 72 h [5]: > 200 µM

Now from value to compound, other results behind:

IC50 at 24 h [5, 13] [µM]	IC50 at 48 h [5, 13] [µM]	IC50 at 72 h [5, 13] [µM]	IC50 at 24 h (in vitro) [µM]	IC50 at 48 h (in vitro) [µM]	SMILES	IC50 (C32 melanoma cells [1]; [7]) [µM]	IC50 (C32 melanoma cells [1]; [8]) [µM]	IC50 (C32 melanoma cells [1]; [9]) [µM]	IC50 (A375 melanoma cells [2]; [10]) [µM]	IC50 (A375 melanoma cells [2]; [11]) [µM]	IC50 (A375 melanoma cells [2]; [12]) [µM]	IC50 (A375 melanoma cells [3]; A-375, 24 h) [µM]	IC50 (A375 melanoma cells [3]; A-375, 48 h) [µM]	IC50 (A375 melanoma cells [3]; A-375, 72 h) [µM]	IC50 (C32 melanoma cells [4]; C32, 24 h) [µM]	IC50 (C32 melanoma cells [4]; C32, 48 h) [µM]	IC50 (C32 melanoma cells [4]; C32, 72 h) [µM]	IC50 at 24 h [6, 13] [µM]	IC50 at 48 h [6, 13] [µM]	IC50 at 72 h [6, 13] [µM]	also measured
> 200	> 200	100 to 200	> 200	> 200	COc1ccc([C@@H]2CC(=O)c3c(O)cc(O)cc3O2)cc1O [Compound 33, hesperetin]	69 ± 5.1	58.3 ± 5.6	53.7 ± 4	100 to 200	100 to 200	74.5 ± 6.4	100 to 200	100 to 200	100 to 200	> 200	100 to 200	76.5 ± 6.3				IC50 at 72 h (in vitro): > 200 µM
> 200	> 200	> 200			COc1ccc(C2CC(=O)c3c(O)cc(OC4OC(CO)C(O)C(O)C4OC4OC(C)C(O)C(O)C4O)cc3O2)cc1O (stereo not drawn) [Compound 35, hesperetin 7-O-neohesperidoside]	> 200	> 200	> 200	> 200	> 200	> 200	> 200	> 200	> 200	> 200	> 200	> 200	> 200	> 200	> 200	
